Experimental data taken from ChEMBL document CHEMBL1201862, “PubChem BioAssay data set” (2004).
Activity calls are given as the source filed them.

Legend:
Phosphomannomutase 2 = target: T1, Phosphomannomutase 2 (Homo sapiens, UniProt O15305); assay: Counter screen SAR assay for PMM2 inhibitors via a fluorescence intensity assay. [Related pubchem assays (depositor defined):AID1545, AID1574]
T1 sequence (O15305 whole entry): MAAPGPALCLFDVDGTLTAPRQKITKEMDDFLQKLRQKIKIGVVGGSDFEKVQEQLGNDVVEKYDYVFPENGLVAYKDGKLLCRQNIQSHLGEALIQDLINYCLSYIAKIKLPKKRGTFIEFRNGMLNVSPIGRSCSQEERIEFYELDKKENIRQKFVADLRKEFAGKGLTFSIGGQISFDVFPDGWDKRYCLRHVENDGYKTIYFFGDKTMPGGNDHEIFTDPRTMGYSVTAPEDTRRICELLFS

[1] = target: T2, Mannose-6-phosphate isomerase (Homo sapiens, UniProt P34949); assay: phosphomannose isomerase inhibition – biochemical, fluorescence intensity, confirmation (AID 1535)
T2 sequence (P34949 whole entry): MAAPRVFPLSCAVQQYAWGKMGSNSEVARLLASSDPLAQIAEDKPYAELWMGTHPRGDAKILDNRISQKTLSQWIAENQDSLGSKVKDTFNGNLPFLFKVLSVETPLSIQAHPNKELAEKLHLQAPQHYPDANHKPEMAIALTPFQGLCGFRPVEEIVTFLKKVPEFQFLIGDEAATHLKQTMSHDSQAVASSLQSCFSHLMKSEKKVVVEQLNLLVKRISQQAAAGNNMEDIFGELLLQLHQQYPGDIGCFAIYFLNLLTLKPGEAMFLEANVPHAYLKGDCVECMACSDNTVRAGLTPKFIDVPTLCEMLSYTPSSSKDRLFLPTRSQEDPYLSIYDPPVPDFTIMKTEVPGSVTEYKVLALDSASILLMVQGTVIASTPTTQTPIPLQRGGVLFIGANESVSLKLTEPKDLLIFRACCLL

[2] = target: DNA dC->dU-editing enzyme APOBEC-3A (Homo sapiens, UniProt P31941); assay: A3A deaminase inhibition for selectivity – biochemical, dose response (AID 504722); assay type: functional
[3] = target: T3, Rac GTPase-activating protein 1 (Homo sapiens, UniProt Q9H0H5); assay: blockers of MgcRacGAP-driven Rac1 GTP hydrolysis – biochemical, ADP Hunter fluorescence, primary and confirmatory, confirmation (AID 624330); assay type: functional
T3 sequence (Q9H0H5 whole entry): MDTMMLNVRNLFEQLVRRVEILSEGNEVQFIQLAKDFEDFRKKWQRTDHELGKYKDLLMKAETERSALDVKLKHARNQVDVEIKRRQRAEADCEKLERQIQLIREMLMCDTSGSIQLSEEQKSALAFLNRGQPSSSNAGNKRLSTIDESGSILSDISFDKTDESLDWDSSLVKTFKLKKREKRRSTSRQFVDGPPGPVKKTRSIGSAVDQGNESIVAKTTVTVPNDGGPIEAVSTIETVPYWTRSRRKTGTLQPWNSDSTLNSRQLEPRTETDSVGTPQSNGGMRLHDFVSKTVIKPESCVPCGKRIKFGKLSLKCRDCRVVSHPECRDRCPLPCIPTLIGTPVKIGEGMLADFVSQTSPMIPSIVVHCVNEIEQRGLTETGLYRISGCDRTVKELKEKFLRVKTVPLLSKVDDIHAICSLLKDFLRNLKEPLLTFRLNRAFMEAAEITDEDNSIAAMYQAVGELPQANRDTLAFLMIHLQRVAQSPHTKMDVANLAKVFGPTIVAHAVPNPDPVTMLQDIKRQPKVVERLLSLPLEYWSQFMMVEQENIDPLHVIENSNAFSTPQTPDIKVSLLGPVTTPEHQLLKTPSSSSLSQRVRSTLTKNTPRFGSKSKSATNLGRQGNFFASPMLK

Coagulation factor XII = target: T4, Coagulation factor XII (Homo sapiens, UniProt P00748); assay type: functional;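 also: activated factor XIIa alpha cleaving a fluorogenic AMC peptide substrate; inhibitor potency from loss of enzyme activity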
T4 sequence (P00748 whole entry): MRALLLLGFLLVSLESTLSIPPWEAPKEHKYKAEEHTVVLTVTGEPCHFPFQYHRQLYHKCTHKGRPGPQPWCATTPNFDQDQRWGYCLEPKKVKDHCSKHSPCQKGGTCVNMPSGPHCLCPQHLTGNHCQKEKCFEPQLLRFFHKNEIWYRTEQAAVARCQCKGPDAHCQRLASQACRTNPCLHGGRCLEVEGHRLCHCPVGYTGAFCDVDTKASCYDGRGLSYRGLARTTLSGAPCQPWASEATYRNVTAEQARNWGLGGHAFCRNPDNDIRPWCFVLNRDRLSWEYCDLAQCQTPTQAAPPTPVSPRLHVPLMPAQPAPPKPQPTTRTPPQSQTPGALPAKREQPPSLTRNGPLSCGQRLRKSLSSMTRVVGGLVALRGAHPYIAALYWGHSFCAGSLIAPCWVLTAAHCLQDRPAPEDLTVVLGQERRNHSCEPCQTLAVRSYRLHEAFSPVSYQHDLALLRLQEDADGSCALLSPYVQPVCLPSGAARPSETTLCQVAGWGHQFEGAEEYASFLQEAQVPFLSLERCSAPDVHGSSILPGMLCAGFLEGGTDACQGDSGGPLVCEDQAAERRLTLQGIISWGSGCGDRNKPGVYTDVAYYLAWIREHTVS

[4] = target: DNA dC->dU-editing enzyme APOBEC-3G (Homo sapiens, UniProt Q9HC16); assay: Dose Response confirmation of small molecule APOBEC3G DNA Deaminase Inhibitors via a fluorescence-based single-stranded DNA deaminase assay. [Related pubchem assays (depositor defined):AID493012, AID493028]; assay type: functional
[5] = viability of PTEN-deleted HCT116 cells – cell-based, HCT116 PTEN knockout, dose response (AID 1047); assay type: functional;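 also: HCT116 colon tumor cells with PTEN knocked out; cells exposed to compound for 60 hours before readout; potency for loss of cell viability measured by luminescence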
[6] = target: G-protein coupled receptor 55 (Homo sapiens, UniProt Q9Y2T6); assay: inhibition of LPI-stimulated GPR55 beta-arrestin translocation – imaging, U2OS, beta-arrestin-GFP, LPI agonist, primary screen (AID 2013); assay type: functional;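 also: antagonist potency measured as reduced agonist-driven arrestin aggregation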
[7] = viability of HCT116 lacking mutant beta-catenin – cell-based, human colon tumor, dose response (AID 1045); assay type: functional;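 also: HCT116 colon tumor cells with beta catenin knocked out; cells exposed to compound for 60 hours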
[8] = target: T5, Ubiquitin-conjugating enzyme E2 N (Homo sapiens, UniProt P61088); assay type: functional
T5 sequence (P61088 whole entry): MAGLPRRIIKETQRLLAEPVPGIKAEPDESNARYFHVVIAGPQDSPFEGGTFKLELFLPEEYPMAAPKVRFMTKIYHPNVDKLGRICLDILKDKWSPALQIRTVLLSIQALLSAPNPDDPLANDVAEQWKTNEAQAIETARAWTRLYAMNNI

[9] = target: T6, Heat shock factor protein 1 (Mus musculus, UniProt P38532); assay: decrease of HSF1-responsive luciferase luminescence – cell-based, NIH3T3, dose retest, confirmation (AID 2382); assay type: functional;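 also: NIH3T3 fibroblasts with HSF1-driven luciferase reporter stressed by proteasome inhibitor MG132; luminescence from HSF1-driven luciferase expression after 8 hours of MG132 stress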
T6 sequence (P38532 whole entry): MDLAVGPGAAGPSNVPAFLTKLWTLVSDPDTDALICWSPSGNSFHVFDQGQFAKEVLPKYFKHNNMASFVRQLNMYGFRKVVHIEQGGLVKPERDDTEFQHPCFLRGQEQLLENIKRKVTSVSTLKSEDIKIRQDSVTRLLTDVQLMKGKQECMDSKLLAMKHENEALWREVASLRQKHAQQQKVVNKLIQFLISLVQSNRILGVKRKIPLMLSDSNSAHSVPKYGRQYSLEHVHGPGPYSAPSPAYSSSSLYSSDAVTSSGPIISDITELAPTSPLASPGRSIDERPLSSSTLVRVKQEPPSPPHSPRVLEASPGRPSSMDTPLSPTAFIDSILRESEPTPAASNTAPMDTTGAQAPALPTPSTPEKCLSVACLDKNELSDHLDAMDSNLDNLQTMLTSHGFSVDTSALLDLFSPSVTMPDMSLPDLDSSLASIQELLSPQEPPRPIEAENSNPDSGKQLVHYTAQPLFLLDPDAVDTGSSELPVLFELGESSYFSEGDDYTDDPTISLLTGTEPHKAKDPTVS

Bcl-2-related protein A1 = target: T7, Bcl-2-related protein A1 (Mus musculus, UniProt Q07440); assay type: functional;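 also: confirmatory dose–response counterscreen on Bfl-1, used to check hits from a UBC13 polyubiquitin inhibitor campaign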
T7 sequence (Q07440 whole entry): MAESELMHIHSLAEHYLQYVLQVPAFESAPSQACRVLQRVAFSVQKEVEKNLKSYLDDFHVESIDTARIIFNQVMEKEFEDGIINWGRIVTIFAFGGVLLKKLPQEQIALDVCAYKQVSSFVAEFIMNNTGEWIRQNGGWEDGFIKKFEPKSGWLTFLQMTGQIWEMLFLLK

INS1 = assay: INS-1E survival protection against cytokine death – cell-based, luminescence, retest, dose response (AID 449756); assay type: functional; conditions: Rattus norvegicus;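 also: cell death triggered by IL-1 beta plus TNF-alpha plus IFN-gamma mixture; protective hits raise ATP signal compared with cytokine alone wells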
[10] = target: T5, Ubiquitin-conjugating enzyme E2 N; assay type: functional; remark: listed apart in the source
[11] = target: T8, Short transient receptor potential channel 4 (Mus musculus, UniProt Q9QUQ5); assay: calcium entry via TRPC4 opening agents – cell-based, HEK293 TRPC4/mu-opioid, Fluo-4 calcium, dose response (AID 434937); assay type: functional
T8 sequence (Q9QUQ5 whole entry): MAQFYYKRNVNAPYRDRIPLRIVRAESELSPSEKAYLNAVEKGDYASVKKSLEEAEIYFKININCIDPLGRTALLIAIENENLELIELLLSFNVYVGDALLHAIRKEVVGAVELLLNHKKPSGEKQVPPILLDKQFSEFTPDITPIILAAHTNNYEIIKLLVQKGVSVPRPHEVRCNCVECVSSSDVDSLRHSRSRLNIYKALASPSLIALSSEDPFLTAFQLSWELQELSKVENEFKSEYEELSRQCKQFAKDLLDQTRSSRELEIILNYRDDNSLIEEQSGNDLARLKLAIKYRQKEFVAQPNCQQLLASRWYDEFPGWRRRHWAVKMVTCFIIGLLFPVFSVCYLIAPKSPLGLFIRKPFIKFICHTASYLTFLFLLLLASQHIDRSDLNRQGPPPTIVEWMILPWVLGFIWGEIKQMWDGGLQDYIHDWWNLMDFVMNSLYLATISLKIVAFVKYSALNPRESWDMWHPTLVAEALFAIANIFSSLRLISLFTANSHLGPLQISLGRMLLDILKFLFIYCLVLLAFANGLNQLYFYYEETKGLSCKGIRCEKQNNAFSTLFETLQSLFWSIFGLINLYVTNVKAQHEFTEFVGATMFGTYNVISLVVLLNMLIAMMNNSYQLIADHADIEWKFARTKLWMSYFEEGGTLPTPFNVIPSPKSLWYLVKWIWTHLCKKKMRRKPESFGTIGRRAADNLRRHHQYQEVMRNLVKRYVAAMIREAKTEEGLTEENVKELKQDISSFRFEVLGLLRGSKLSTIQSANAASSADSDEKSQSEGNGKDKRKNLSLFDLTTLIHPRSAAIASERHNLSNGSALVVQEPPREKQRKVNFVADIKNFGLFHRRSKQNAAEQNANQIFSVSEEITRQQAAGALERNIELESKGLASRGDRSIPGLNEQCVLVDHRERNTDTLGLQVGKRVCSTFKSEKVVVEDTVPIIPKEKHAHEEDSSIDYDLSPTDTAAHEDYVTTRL

[12] = target: T8, Short transient receptor potential channel 4; assay: block of DAMGO-driven TRPC4 calcium entry – cell-based, HEK293 TRPC4/mu-opioid, Fluo-4 calcium, dose response (AID 434942); assay type: functional;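 also: potency of inhibitors blocking the TRPC4 calcium response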
[13] = A Cell Based Secondary Assay To Explore Cytotoxicity of Compounds that Sensitize Mycobacterium Tuberculosis to Beta-Lactam Antibiotics.; assay type: functional

G-protein coupled receptor 55, sequence (Q9Y2T6 whole entry): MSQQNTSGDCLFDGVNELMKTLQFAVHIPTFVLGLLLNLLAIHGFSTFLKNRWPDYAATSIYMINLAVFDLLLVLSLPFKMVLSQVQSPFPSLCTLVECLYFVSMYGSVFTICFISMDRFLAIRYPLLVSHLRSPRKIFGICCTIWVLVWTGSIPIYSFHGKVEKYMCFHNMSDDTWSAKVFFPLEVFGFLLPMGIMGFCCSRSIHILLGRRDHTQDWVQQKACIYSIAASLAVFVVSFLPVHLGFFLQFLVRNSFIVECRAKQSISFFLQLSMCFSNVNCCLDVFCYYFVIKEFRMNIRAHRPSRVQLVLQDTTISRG
DNA dC->dU-editing enzyme APOBEC-3G, sequence (Q9HC16 whole entry): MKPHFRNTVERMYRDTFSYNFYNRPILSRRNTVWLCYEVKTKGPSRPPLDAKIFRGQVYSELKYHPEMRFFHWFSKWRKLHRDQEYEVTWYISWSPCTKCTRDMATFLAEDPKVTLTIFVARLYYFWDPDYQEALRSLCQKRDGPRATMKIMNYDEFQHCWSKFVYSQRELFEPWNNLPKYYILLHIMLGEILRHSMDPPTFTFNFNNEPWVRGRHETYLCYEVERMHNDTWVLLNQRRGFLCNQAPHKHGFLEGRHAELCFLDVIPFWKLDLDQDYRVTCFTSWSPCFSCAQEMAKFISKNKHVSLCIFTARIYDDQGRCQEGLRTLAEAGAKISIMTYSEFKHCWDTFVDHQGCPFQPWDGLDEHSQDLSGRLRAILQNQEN
DNA dC->dU-editing enzyme APOBEC-3A, sequence (P31941 whole entry): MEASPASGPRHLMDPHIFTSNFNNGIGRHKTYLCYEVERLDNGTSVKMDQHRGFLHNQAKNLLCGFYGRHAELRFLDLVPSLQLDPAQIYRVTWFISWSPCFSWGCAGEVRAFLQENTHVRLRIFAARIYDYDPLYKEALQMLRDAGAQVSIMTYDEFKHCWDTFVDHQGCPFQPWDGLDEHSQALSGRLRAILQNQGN

In the case of `Cc1c(Cl)cccc1/N=c1\ssnc1Cl`, the IC50 (Phosphomannomutase 2) is reported as > 100 µM (inactive) and the IC50 [1] is reported as > 100 µM (inactive).

In the case of `Sc1nnc(-c2ccncc2)n1/N=C/C=C/c1ccco1`, the IC50 [2] is reported as 26.7 µM (active), the IC50 [3] is reported as 81.9 µM (active) and the IC50 (Coagulation factor XII) is reported as 45.3 µM (active). The IC50 [4] was 2.54 µM (active).

With `COc1ccc(OCC(O)Cn2c(=N)n(Cc3ccccc3)c3ccccc32)cc1` (stereo unspecified) the EC50 [5] was 7.31 µM (active), the IC50 [6] was 3.61 µM (active) and the EC50 [7] was 7.38 µM (active).

With `CCN1CCN(Cc2ccc(NC(=O)c3cc(NC(=O)c4cncc(-c5ccc(C#N)cc5)c4)cc(OC)c3)cc2C(F)(F)F)CC1` the IC50 [8] was 10.9 µM (active), the EC50 [9] was > 195 µM (not active) and the IC50 (Bcl-2-related protein A1) was 8.76 µM (active). The AC50 (INS1) was 8.2 µM (active) and the IC50 [10] was 6.69 µM (active).

With `CCOC(=O)c1c(NC(=O)C2=C(C)N=C(S)NC2c2ccc(CC)cc2)sc(C)c1C` (stereo unspecified) the IC50 [6] was 1.64 µM (active).

With `COc1ccc(/C=C/C(=O)Nc2ccccc2C(=O)NCC(c2ccc(OC)cc2)N(C)C)cc1` (stereo unspecified) the EC50 [9] was > 195 µM (not active), the EC50 [11] was 0.421 µM (active) and the EC50 [12] was 0.188 µM (active).

With `COc1ccc(NC(=O)CN2CCN(C3c4ccccc4-c4ccccc43)CC2)c(OC)c1` the IC50 [6] was 2.19 µM (active) and the CC50 [13] was > 40 µM (active).

For `Cc1c(CN2CCC(n3nccc3NC(=O)C3CC3)CC2)[nH]c2ccccc12`, the EC50 [11] was 0.596 µM (active).

In the case of `Clc1nss/c1=N\c1cnc2ccccc2c1`, the IC50 (Phosphomannomutase 2) is reported as > 100 µM (inactive) and the IC50 [1] is reported as 67.2 µM (active).

For `O=[N+]([O-])c1c(Br)cccc1/N=c1\ssnc1Cl`, the IC50 (Phosphomannomutase 2) was 4.8 µM (active) and the IC50 [1] was 7.37 µM (active).

For `COc1cc2c(cc1OC)C(C)N(C(=O)C(NC(=O)c1ccccc1)C(C)C)CC2` (stereo unspecified), the EC50 [11] was 5.96 µM (active).
